One assay has as its system Oligoporus placenta. In words: Growth inhibition by iodinated and non-iodinated phenols on agar plates (Example 2). The class given is cell-based. The settings on record: Rhodonia placenta, ± standard deviation, n = 6, read-out: Growth inhibition, O. placenta; for inhibition at 1000 µM: 1mM in 2% malt extract agar; for inhibition at 2000 µM: 2mM in 2% malt extract agar; for inhibition at 4000 µM: 4mM in 2% malt extract agar. The procedure:
(§1) Vanillin and ethyl-vanillin (4 mM) were incubated in the presence of commercial T. versicolor laccase (250 mg per L), 0.1 mM mediator ABTS and 50 mM potassium iodide in citrate-phosphate buffer (pH 5.0) for 20 h at room temperature. The reaction vessels with a liquid volume of 1 L were aerated with pressurized air through a frit. Reaction products were extracted by addition of 250 mL ethyl-acetate, thorough mixing and subsequent separation of the organic phase. The solvent was removed in a rotary evaporator at 50°C under vacuum until solid products were obtained. Reaction products were re-dissolved in ethyl-acetate and analysed by HPLC-MS.
(§2) For biotests, iodo-vanillin and iodo-ethyl-vanillin were dissolved to a concentration of 0.4 M in DMSO (stock solution). The non-iodinated reference compounds (educts) vanillin and ethyl-vanillin were dissolved to a concentration of 0.1 M in ethanol. All compounds were evaluated on agar plates (Ø 90mm). The compounds were added to 2% malt extract agar after autoclaving to final concentrations of 1, 2 and 4 mM, respectively. Control plates contained similar amounts of DMSO or ethanol as added with stock solutions. Supplemented agar plates were inoculated in the centre with a mycelium agar disc (9-mm diameter) taken from the submargins of 14-day old cultures of the basidiomycetes Oligoporus placenta, Gloephyllum trabeum, Coniophora puteana, Trametes versicolor and the ascomycete Aureobasidium pullulans. Plates were incubated at 22 °C and 70% RH. The radial fungal growth was estimated by measuring the colony diameter, and the growth inhibition was expressed as percentage reduction of this value after similar incubation times. Growth inhibition data of 6 replicate plates per compound/control were arcsine transformed prior to statistical analysis (ANOVA) and back transformed to numerical values for visualization. Means were separated using Tukey's HSD (honestly significant difference) test at significance levels with P values of <0.05 and <0.001. The statistical package used for all analyses was SPSS (version 17.0; SPSS Inc., Chicago, IL).

The subject of the next assay is Gloephyllum trabeum. The assay is described as above. The assay is classed as cell-based. To be noted: Gloeophyllum trabeum, ± standard deviation, n = 6, read-out: Growth inhibition, G. trabeum; for inhibition at 1000 µM: 1mM in 2% malt extract agar; for inhibition at 2000 µM: 2mM in 2% malt extract agar; for inhibition at 4000 µM: 4mM in 2% malt extract agar. The procedure: as §1, §2

Another assay has as its system Coniophora puteana. Described as above. The assay is classed as cell-based. The settings on record: ± standard deviation, n = 6, read-out: Growth inhibition, C. puteana; for inhibition at 1000 µM: 1mM in 2% malt extract agar; for inhibition at 2000 µM: 2mM in 2% malt extract agar; for inhibition at 4000 µM: 4mM in 2% malt extract agar. The procedure: as §1, §2
In a further assay the test system is Trametes versicolor. Described as above. The class given is cell-based. The settings on record: ± standard deviation, n = 6, read-out: Growth inhibition, T. versicolor; for inhibition at 1000 µM: 1mM in 2% malt extract agar; for inhibition at 2000 µM: 2mM in 2% malt extract agar; for inhibition at 4000 µM: 4mM in 2% malt extract agar. Here is the method: as §1, §2

Assay [1] relates to Trametes versicolor laccase. Kind of assay: Laccase-catalysed oxidation of iodide to tri-iodide with redox mediators (absorbance at 353 nm). The assay is classed as biochemical.
Description: The enzyme used in the study was a commercial laccase from Trametes versicolor (Sigma-Aldrich). […] Reactions were performed in transparent polymethyl methacrylate (PMMA) cuvettes or polystyrene micro titer plates. Change in absorbance (ΔA) at 420nm was recorded in intervals of 10sec for 3min. Samples with very high activities were diluted 10-fold with ddH2O before using them in the assay. Volumetric activities were calculated using an extinction coefficient (ε) of 0.036µmol^-1 1 cm^-1 (36000mol^-1 1 cm^-1) (22), according to the following equation (Δt in min, V in µl):
The laccase-catalysed oxidation of iodide (I^-) to iodine (I2) was monitored by the formation of triiodide (I3^-) at 353nm (laccase activity 0.12U ml^-1, 50mM iodide, citrate buffer pH 4.5, extinction coefficient of I3^- ε = 28000 mol^-1 1 cm^-1) (24, 17). […] Well-known synthetic (ABTS) and natural (acetosyringone [ACS], 4-hydroxybenzoic acid [HBA]) laccase mediators were tested (25, 26). […] The pH optima for mediator-enhanced oxidation of iodide were determined using the McIlvain citrate-phoshate buffer series.
Assay [2] deals with A. pullulans, C. picea, C. herbarum and D. pinicola. In words: Biotests 2: blue stain test of treated wood (EN 152-2, modified). The class given is cell-based. The settings on record: 6 weeks of incubation, mean of stain categories 0-5 ±SE, n = 6, Mediator = ACS (50 µM). The procedure: Wood specimens (batch 1: 10 x 10 x 5 mm, length x width x height used in the biotests 1 and batch 2: 20 x 15 x 10 mm used in the biotests 2), free of defects, were extracted longitudinally from boards of Norway spruce trees grown in Switzerland, in order to minimize the influence of natural variability. All specimens were conditioned at 23C°(±1°C) and 50% (±5%) relative humidity (RH) until they reached an equilibrium moisture content of approximately 8-10%. Prior to the wood treatment the specimens were sterilized by autoclaving for 20min at 121°C(±1°C).
The enzymatic wood iodination and polymerisation were carried out by dipping three wood specimens of batch 1 in 30ml or 12 wood specimens of batch 2 in 200ml reaction solution (pH 4-6) containing one of the phenolic compounds (4mM), or potassium iodide (1 or 50mM) in the presence of laccase ([…]) for 18h at room temperature. Furthermore, to test the suitability of HBA (5mM) as mediator some additional experiments were performed. The chemical preservative VP 7/ 260a containing IPBC and propiconazole as active agents was used as a benchmark with a final concentration of 5% (v/v). The wood specimens were treated and used in the biological tests, with the following modifications: • Control = Wood treated with buffer • L = Wood treated with laccase alone • L-M = Wood treated with laccase and mediator • Iso = Wood treated with isoeugenol • Iso-L = Wood treated with isoeugenol and laccase • Iso-L-M = Wood treated with isoeugenol, laccase and mediator • Thy = Wood treated with thymol • Thy-L = Wood treated with thymol and laccase • Thy-L-M = Wood treated with thymol and laccase and mediator • Ix = Wood treated with 1 or 50mM iodide (x = concentration of iodide) • Ix-L = Wood treated with 1 or 50mM iodide and laccase • Ix-L-M = Wood treated with 1 or 50mM iodide, laccase and mediator • VP7 = Wood treated with VP 7/ 260a (IPBC and propiconazole)
After the reaction all wood specimens of batch 1 had undergone a leaching procedure comprising five cycles of incubation in ddH2O (liquid volume min. 10 times the specimen volume, 100rpm, room temperature, 24h) and water exchange. Half of the wood specimens of batch 2 were exposed to leaching for two weeks including nine steps of water changing according to EN 84 (29), the other half was used without leaching in biotests.
The resistance of the treated wood against blue stain and wood decay fungi was determined in biotests 2 according to the European standards EN 152-2 (30) and EN 113 (31) with slight modifications. The EN 152 is a classical test for blue staining, originally intended to determine the effectiveness of a preservative treatment against blue stain in service. The treated wood samples were dipped into a spore suspension of A. pullulans, C. picea, C. herbarum and D. pinicola (cfu: > 10^5) and placed horizontally in a Kolle flask containing vermiculite (18g) which was inoculated additionally with 40ml of the spore suspension. The incubated specimens were stored in an incubation room at 22°C and 70% RH (6 weeks). After incubation the surface was evaluated by classifying the percentage of blue-stain discolouration from 0 to 5 according to Thwaites et al. (32) (Table 1). Table 1: Determination of the blue stain discoloration

In a further assay the test system is Aureobasidium pullulans. Kind of assay: Growth inhibition by iodinated and non-iodinated phenols on agar plates (Example 2). To be noted: ± standard deviation, n = 6; for inhibition at 1000 µM: 1mM in 2% malt extract agar; for inhibition at 2000 µM: 2mM in 2% malt extract agar; for inhibition at 4000 µM: 4mM in 2% malt extract agar. The assay is classed as cell-based. The procedure:
as §1, §2

The term inhibition denotes the relative decrease from the control value, in per cent.

On to `CCOc1cc(C=O)ccc1O` [Ethylvanillin], for which the inhibition at 1000 µM stood at 0% in the assay with Oligoporus placenta, 15.8% in the assay on Gloephyllum trabeum, 0% with Coniophora puteana and 10.2% in the assay with Trametes versicolor. Moreover, the inhibition at 2000 µM in the assay on Oligoporus placenta amounted to 0%; in the assay with Gloephyllum trabeum, 23.9%; with Coniophora puteana, 21.1 ± 18.3%; in the assay on Trametes versicolor, 29.9%. Besides, the values for the inhibition at 4000 µM with Oligoporus placenta, with Coniophora puteana and with Trametes versicolor were 0%, 31.2 ± 21.2% and 11.4%, respectively.
Turning to `O=C(O)c1ccc(O)cc1` [HBA, 4-hydroxybenzoic acid], the function as mediator entry in assay [1] (data not shown) is on record as “not to have a function as mediator”.
Compound `COc1cc(C(C)=O)cc(OC)c1O` [ACS, acetosyringone] yielded a laccase-catalysed tri-iodide formation in assay [1] (pH 5, 50µM mediator) of 0.89 µM/min/mg.
Consider `[I-].[K+]` [I1, potassium iodide], for which, in assay [2] (wood batch 2, leached (EN 84)), the “Blue stain discoloration, Leached” value stood at 3.7 ±0.4. Further, the “Blue stain discoloration, Non-leached” value in assay [2] (wood batch 2, non-leached) worked out at 2.2 ±0.4.
The compound `CCn1c(=NN=c2sc3cc(S(=O)(=O)O)ccc3n2CC)sc2cc(S(=O)(=O)O)ccc21` [ABTS, 2,2-azino-bis(3-ethylbenzothiazoline-6-sulfonic acid)] showed a laccase-catalysed tri-iodide formation in assay [1] (pH 4, 10µM mediator) of 0.13 µM/min/mg.
As for `COc1cc(C=O)ccc1O` [Vanillin, 4-hydroxy-3-methoxybenzaldehyde], the inhibition at 1000 µM in the assay on Aureobasidium pullulans stood at 0%; with Oligoporus placenta, 0%; with Gloephyllum trabeum it was 2.19 ± 1%; in the assay with Coniophora puteana it was 18.2 ± 31.6%; in the assay with Trametes versicolor, 6.59 ± 4.2%. Besides, the inhibition at 2000 µM in the assay with Aureobasidium pullulans is 8.52 ± 14.8%; with Oligoporus placenta, 11.8 ± 8.5%; with Gloephyllum trabeum it was 13.4%; with Coniophora puteana it was 24.2%; with Trametes versicolor, 18.8%. The inhibition at 4000 µM in the assay on Aureobasidium pullulans amounted to 17.9 ± 11.5%; in the assay with Oligoporus placenta it was 55.3%; with Gloephyllum trabeum, 51.4%; with Coniophora puteana, 61.5%; with Trametes versicolor, 42%.
As to `COc1cc(C=O)cc(I)c1O` [5-Iodo-Vanillin (commercial), 4-hydroxy-3-iodo-5-methoxybenzaldehyde], the inhibition at 1000 µM in the assay with Aureobasidium pullulans came to 1.36 ± 1.4%; in the assay with Oligoporus placenta, 17.7%; in the assay on Gloephyllum trabeum, 40.9%; in the assay with Coniophora puteana it was 66.4%; in the assay with Trametes versicolor, 78.5%. Moreover, the inhibition at 2000 µM in the assay with Aureobasidium pullulans was 7.31%; in the assay on Oligoporus placenta, 22.5%; in the assay with Gloephyllum trabeum, 37.3%; in the assay on Coniophora puteana it was 65.1%; in the assay with Trametes versicolor, 82%. In addition, the inhibition at 4000 µM with Aureobasidium pullulans stood at 1.51 ± 2.4%; in the assay on Oligoporus placenta, 9.06%; in the assay with Gloephyllum trabeum, 38.1%; in the assay on Coniophora puteana, 56.5%; with Trametes versicolor it was 82.9%.

These data come from EP2871962B1, “WOOD PROTECTION AGAINST MICROORGANISMS BY LACCASE-CATALYSED IODINATION” (EMPA Eidgenössische Materialprüfungs- und Forschungsanstalt, priority 2012, dated 2013).
